Measurements reported in patent US10029986B2, “Alkynyl pyridine-substituted amide compound and pesticide” (NISSAN CHEMICAL INDUSTRIES, LTD., priority 2014, dated 2018).

How the values were obtained:
Sclerotinia sclerotiorum = test: Test on the preventive effect against cucumber stem rot; type: in vivo; conditions: 48 h, test solution A 500 ppm, 5 ml per pot, agar block inoculation, 2 days at 20° C.
Description: Compounds of the present invention were dissolved in a solvent for emulsion (a mixture of Sorpol (registered trademark) 3005XL (manufactured by Toho Chemical Industry Co., Ltd.): N-methylpyrrolidone: Solvesso (registered trademark) 200 (manufactured by ExxonMobil Chemical) in a ratio of 1:5:2) to prepare 20 wt % emulsifiable concentrates. Then, distilled water was added to dilute the emulsifiable concentrates to the prescribed concentration (500 ppm), and the obtained solutions were used in the following the Test Examples 1 to 8. Cucumber (varieties: Sagami Hanjiro) was seeded in 90 cm^3 plastic pot, and at the cotyledon stage, 5 ml per pot of test solution A of the compounds of the present invention was applied. After drying in air, the pot was transferred in a plastic container, and an agar blocks (diameter: 5 mm) containing Sclerotinia sclerotiorum which was preliminarily cultivated in a PDA medium was inoculated to the seed leaves of the cucumber treated with the solution. After the inoculation, the plastic container was covered with a plastic sheet, and placed at 20° C. and humidified for 2 days, thus the proportion of the formed lesion in the inoculated leaves were measured to calculate the control value in accordance with the same formula as in the Test Example 1. The test was carried out in duplicate.

[1] = test system: Erysiphe polygoni (synonym: Erysiphe betae); test: Test on the preventive effect against cucumber powdery mildew; type: in vivo; conditions: 216 h, test solution A 500 ppm, 5 ml per pot sprayed, cucumber cotyledon stage, 9 days after inoculation
Description: Compounds of the present invention were dissolved in a solvent for emulsion (a mixture of Sorpol (registered trademark) 3005XL (manufactured by Toho Chemical Industry Co., Ltd.): N-methylpyrrolidone: Solvesso (registered trademark) 200 (manufactured by ExxonMobil Chemical) in a ratio of 1:5:2) to prepare 20 wt % emulsifiable concentrates. Then, distilled water was added to dilute the emulsifiable concentrates to the prescribed concentration (500 ppm), and the obtained solutions were used in the following the Test Examples 1 to 8. Cucumber (varieties: Sagami Hanjiro) was seeded in 90 cm^3 plastic pot, and at the cotyledon stage, 5 ml per pot of test solution A of the compounds of the present invention was sprayed. After drying in air, the pot was placed in an air-conditioned greenhouse (20° C.), and a suspension of conidium of Erysiphe polygoni (synonym: Erysiphe betae) was sprayed. After the pot were replaced at the same temperature for 9 days, the proportion of the formed lesion in the inoculated leaves were counted to calculate the control value in accordance with the following formula. The test was carried out in duplicate. Control value=[1−(lesion area ratio in treated plot/lesion are a ratio in non-treated plot)]×100

Botrytis cinerea = test: Test on the preventive effect against cucumber gray mold (spore inoculation); type: in vivo; conditions: 72 h, test solution A 500 ppm, 5 ml per pot, cucumber cut leaves, conidium inoculation, 3 days at 20° C.
Description: Compounds of the present invention were dissolved in a solvent for emulsion (a mixture of Sorpol (registered trademark) 3005XL (manufactured by Toho Chemical Industry Co., Ltd.): N-methylpyrrolidone: Solvesso (registered trademark) 200 (manufactured by ExxonMobil Chemical) in a ratio of 1:5:2) to prepare 20 wt % emulsifiable concentrates. Then, distilled water was added to dilute the emulsifiable concentrates to the prescribed concentration (500 ppm), and the obtained solutions were used in the following the Test Examples 1 to 8. Cucumber (varieties: Sagami Hanjiro) was seeded in 90 cm^3 plastic pot, and at the cotyledon stage, 5 ml per pot of test solution A of the compounds of the present invention was applied. After drying in air, the treated leaves were cut and transferred in plastic containers. 30 μl of a mixture of a suspension of conidium of Botrytis cinerea and a dissolved PDA medium in a ratio of 1:1 was dropped on each treated leaf and inoculated. After the inoculation, the plastic containers were placed in 20° C. with humid conditions for 3 days, and the proportion of the formed lesion in the inoculated leaves were counted to calculate the control value in accordance with the same formula as in the Test Example 1. The test was carried out in duplicate.

Puccinia recondita = test: Test on the preventive effect against wheat leaf rust; type: in vivo; conditions: 216 h, test solution A 500 ppm, 5 ml per pot, wheat 1.3-leaf stage, 1 day inoculation chamber then 8 days at 20° C.
Description: Compounds of the present invention were dissolved in a solvent for emulsion (a mixture of Sorpol (registered trademark) 3005XL (manufactured by Toho Chemical Industry Co., Ltd.): N-methylpyrrolidone: Solvesso (registered trademark) 200 (manufactured by ExxonMobil Chemical) in a ratio of 1:5:2) to prepare 20 wt % emulsifiable concentrates. Then, distilled water was added to dilute the emulsifiable concentrates to the prescribed concentration (500 ppm), and the obtained solutions were used in the following the Test Examples 1 to 8. Wheat (varieties: Norin 61) was seeded in 90 cm^3 plastic pot, and at 1.3-leaf stage, 5 ml per pot of test solution A of the compounds of the present invention was applied. One day after treatment, a suspension of spores of Puccinia recondita was sprayed to the wheat, and the pot was left in the inoculation chamber at 20° C. under humidity of 100% RH for 1 day. Thereafter, the pot was placed in an air-conditioned greenhouse (20° C.) for 8 days. The proportion of the formed lesion in the inoculated leaves were counted to calculate the control value in accordance with the same formula as in the Test Example 1. The test was carried out in duplicate.

| melting point [°C] | SMILES | pest or weed control at 500 µg/mL (Sclerotinia sclerotiorum) [%] | pest or weed control at 500 µg/mL [1] [%] | pest or weed control at 500 µg/mL (Botrytis cinerea) [%] | pest or weed control at 500 µg/mL (Puccinia recondita) [%] |
| --- | --- | --- | --- | --- | --- |
| 114 to 117 | O=C(NCCc1ncc(C#CC2CC2)cc1Cl)c1cccnc1C(F)F [3-001, N-[2-[3-chloro-5-(cyclopropylethynyl)pyridin-2-yl]ethyl]-2-(difluoromethyl)nicotinamide] | ≥ 70 | ≥ 70 | ≥ 70 | ≥ 70 |
| 96 to 98 | Cn1cc(C(=O)NCCc2ncc(C#CC3CC3)cc2Cl)c(C(F)F)n1 [8-001] | ≥ 70 | ≥ 70 | ≥ 70 | ≥ 70 |
|  | CC(CNC(=O)c1cn(C)nc1C(F)F)c1ncc(C#CC2CC2)cc1Cl (stereo not shown) [8-007] | ≥ 70 | ≥ 70 | ≥ 70 | ≥ 70 |
|  | Cn1cc(C(=O)NCC2(c3ncc(C#CC4CC4)cc3Cl)CC2)c(C(F)F)n1 [8-018, N-[[1-[3-chloro-5-(cyclopropylethynyl)pyridin-2-yl]cyclopropyl]methyl]-3-difluoromethyl-1-methyl-1H-pyrazole-4-carboxamide] | ≥ 70 | ≥ 70 | ≥ 70 |  |
|  | COC(c1ncc(C#CC2CC2)cc1Cl)C(C)NC(=O)c1nccnc1C(F)(F)F (stereo not shown) [4-004] | ≥ 70 | ≥ 70 | ≥ 70 | ≥ 70 |
|  | COC(=O)C(CNC(=O)c1cn(C)nc1C(F)F)c1ncc(C#CC2CC2)cc1Cl (stereo not shown) [8-022, 2-[3-chloro-5-(cyclopropylethynyl)pyridin-2-yl]-3-(3-difluoromethyl-1-methyl-1H-pyrazole-4-carboxamide)propionic acid methyl ester] | ≥ 70 | ≥ 70 | ≥ 70 | ≥ 70 |
|  | CC(C)(CNC(=O)c1cccnc1C(F)F)c1ncc(C#CC2CC2)cc1Cl [3-007, N-[2-[3-chloro-5-(cyclopropylethynyl)pyridin-2-yl]-2-methylpropyl]-2-(difluoromethyl)nicotinamide] | ≥ 70 | ≥ 70 | ≥ 70 |  |
|  | COC(c1ncc(C#CC2CC2)cc1Cl)C(C)NC(=O)c1ccccc1C(F)(F)F (stereo not shown) [1-024] | ≥ 70 | ≥ 70 | ≥ 70 | ≥ 70 |
| 110 to 111 | COC(CNC(=O)c1cn(C)nc1C(F)F)c1ncc(C#CC2CC2)cc1Cl (stereo not shown) [8-019] | ≥ 70 | ≥ 70 | ≥ 70 |  |
|  | Cn1cc(C(=O)NCC(C)(C)c2ncc(C#CC3CC3)cc2Cl)c(C(F)F)n1 [8-008] | ≥ 70 | ≥ 70 | ≥ 70 |  |
|  | COC(c1ncc(C#CC2CC2)cc1Cl)C(C)NC(=O)c1cn(C)nc1C(F)F (stereo not shown) [8-028, N-[2-[3-chloro-5-(cyclopropylethynyl)pyridin-2-yl]-2-methoxy-1-methylethyl]-3-difluoromethyl-1-methyl-1H-pyrazole-4-carboxamide] | ≥ 70 | ≥ 70 | ≥ 70 |  |
|  | Cn1cc(C(=O)NCCc2ncc(C#CC(C)(C)C)cc2Cl)c(C(F)F)n1 [8-002] | ≥ 70 | ≥ 70 | ≥ 70 | ≥ 70 |
|  | CC(NC(=O)c1ccccc1C(F)(F)F)C(OCc1ccccc1)c1ncc(C#CC2CC2)cc1Cl (stereo not shown) [1-031, N-[2-benzyloxy-2-[3-chloro-5-(cyclopropylethynyl)pyridin-2-yl]-1-methylethyl]-2-(trifluoromethyl)benzamide] | ≥ 70 | ≥ 70 | ≥ 70 | ≥ 70 |
|  | COC(c1ncc(C#CC2CC2)cc1Cl)C(C)NC(=O)c1sc(C)nc1C(F)F (stereo not shown) [9-006a] | ≥ 70 | ≥ 70 | ≥ 70 |  |
| 36 to 38 | COC(c1ncc(C#CC(C)(C)C)cc1Cl)C(C)NC(=O)c1ccccc1C(F)(F)F (stereo not shown) [1-025] | ≥ 70 | ≥ 70 | ≥ 70 | ≥ 70 |
|  | COC(c1ncc(C#CC2CC2)cc1Cl)C(C)NC(=O)c1cccnc1C(F)F (stereo not shown) [3-021] | ≥ 70 | ≥ 70 | ≥ 70 | ≥ 70 |
|  | CC(CNC(=O)c1cccnc1Cl)c1ncc(C#CC2CC2)cc1Cl (stereo not shown) [3-005] | ≥ 70 | ≥ 70 | ≥ 70 |  |
| 90 to 92 | CC(C)(C)C#Cc1cnc(CCNC(=O)c2ccccc2C(F)(F)F)c(Cl)c1 [1-003, N-[2-[3-chloro-5-(3,3-dimethyl-1-butynyl)pyridin-2-yl]ethyl]-2-(trifluoromethyl)benzamide] | ≥ 70 | ≥ 70 | ≥ 70 |  |
|  | O=C(NCC(c1ncc(C#CC2CC2)cc1Cl)C1CC1)c1ccccc1C(F)(F)F (stereo not shown) [1-009] | ≥ 70 | ≥ 70 | ≥ 70 |  |
|  | CC(C)(CNC(=O)c1ccccc1C(F)(F)F)c1ncc(C#CC2CC2)cc1Cl [1-008] | ≥ 70 | ≥ 70 | ≥ 70 |  |
|  | CC(CNC(=O)c1ccccc1C(F)(F)F)c1ncc(C#CC2CC2)cc1Cl (stereo not shown) [1-007, N-[2-[3-chloro-5-(cyclopropylethynyl)pyridin-2-yl]propyl]-2-(trifluoromethyl)benzamide] | ≥ 70 | ≥ 70 | ≥ 70 |  |
| 85 to 90 | C=C(CNC(=O)c1ccccc1C(F)(F)F)c1ncc(C#CC)cc1Cl [1-012, N-[2-[3-chloro-5-(1-propynyl)pyridin-2-yl]-2-propenyl]-2-(trifluoromethyl)benzamide] | ≥ 70 | ≥ 70 | ≥ 70 |  |
|  | CSC(CNC(=O)c1ccccc1C(F)(F)F)c1ncc(C#CC2CC2)cc1Cl (stereo not shown) [1-021] | ≥ 70 | ≥ 70 | ≥ 70 |  |
